Laboratory results taken from patent US20140179681A1, “METHODS AND COMPOSITIONS OF TARGETED DRUG DEVELOPMENT” (priority 2010, published 2014).
Where two headings read alike, the source gives them in different places.

What was measured:
EGFR = biological target: T1, EGFR (Homo sapiens, UniProt P00533); test: EGFR in-cell Western (ICW) screening protocol (EGFR inhibition assay); format: cell-based; design: ICW 1 / ICW 2 / ICW Avg: unit not given here; details: for ICW assay: Table 10, % Inhibition of EGF dependent EGFR phosphorylation in A431 cells, compound 125 μM in assay; for ICW Avg / ICW 1 / ICW 2: ICW assay; for ICW Avg: average of runs 1 and 2; for ICW 1: run 1; for ICW 2: run 2
T1 construct: host or cells: A431
T1 sequence (P00533 25-1210): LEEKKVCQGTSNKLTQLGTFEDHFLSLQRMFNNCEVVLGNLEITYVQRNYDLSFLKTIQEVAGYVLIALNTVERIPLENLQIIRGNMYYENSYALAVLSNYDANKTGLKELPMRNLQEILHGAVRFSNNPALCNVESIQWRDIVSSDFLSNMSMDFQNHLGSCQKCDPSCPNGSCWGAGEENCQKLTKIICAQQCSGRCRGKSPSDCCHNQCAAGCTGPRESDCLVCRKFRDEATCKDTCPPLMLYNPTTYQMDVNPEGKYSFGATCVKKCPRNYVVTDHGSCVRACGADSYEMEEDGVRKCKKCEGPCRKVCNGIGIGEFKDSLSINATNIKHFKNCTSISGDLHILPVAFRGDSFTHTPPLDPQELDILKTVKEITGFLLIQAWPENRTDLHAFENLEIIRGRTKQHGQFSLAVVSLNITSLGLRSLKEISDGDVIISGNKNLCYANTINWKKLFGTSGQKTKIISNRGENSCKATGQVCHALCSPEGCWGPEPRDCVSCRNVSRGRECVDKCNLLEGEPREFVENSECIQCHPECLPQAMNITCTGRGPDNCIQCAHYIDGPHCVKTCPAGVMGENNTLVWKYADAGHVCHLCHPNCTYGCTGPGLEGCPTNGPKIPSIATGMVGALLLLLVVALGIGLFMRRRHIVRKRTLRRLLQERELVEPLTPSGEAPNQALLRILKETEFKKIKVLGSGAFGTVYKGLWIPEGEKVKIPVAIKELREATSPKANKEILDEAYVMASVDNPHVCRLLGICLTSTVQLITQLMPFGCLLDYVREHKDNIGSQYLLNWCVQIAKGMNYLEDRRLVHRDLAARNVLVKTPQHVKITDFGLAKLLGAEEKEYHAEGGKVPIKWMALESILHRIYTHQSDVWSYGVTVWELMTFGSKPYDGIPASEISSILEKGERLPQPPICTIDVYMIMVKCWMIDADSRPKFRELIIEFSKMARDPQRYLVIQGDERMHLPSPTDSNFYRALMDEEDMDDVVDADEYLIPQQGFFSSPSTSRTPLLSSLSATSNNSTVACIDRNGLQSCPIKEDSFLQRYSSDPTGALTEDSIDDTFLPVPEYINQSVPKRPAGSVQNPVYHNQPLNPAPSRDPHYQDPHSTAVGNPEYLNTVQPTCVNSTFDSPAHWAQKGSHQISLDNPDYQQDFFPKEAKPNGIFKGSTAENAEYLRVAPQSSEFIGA
How it was run: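 Serum-starved A431 cells (2 h) were pretreated with compound for 4 h at 37° C, then stimulated with EGF (10 ng/ml final, or 6.6 or 12.5 ng/ml in some runs) for 10 min. After formaldehyde fixation, phospho-EGFR (Tyr1173, or Tyr1045 in some runs) and total EGFR were detected by in-cell Western immunostaining.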

MDBK line = test: MTT Cell Proliferation Assay, MDBK cells; format: cell-based, bovine; details: MDBK; for IC50: Bos taurus
How it was run: (§1)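 Viability was measured by mitochondrial MTT reduction after cells were exposed to compound for 3 days in reduced-serum medium. Inhibition was calculated per plate against 0.5% DMSO controls.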

[1] = tested on: epithelial carcinoma A431 cell line; test: MTT Cell Proliferation Assay, A431 cells; format: cell-based; details: for IC50: Homo sapiens; for MTT Assay IC50(A431/MDBK): ratio in parentheses: ratio MDBK IC50 / A431 IC50 (selectivity); for MTT Follow-up: ratio in parentheses: ratio MDBK/A431
How it was run: as §1

[2] = 72 h, Table 10, second of x/y(ratio): MDBK, three day treatment, unit not printed (doses in μM), read-out: MTT assay (second value)
[3] = A-431, 72 h, Table 10, first of x/y(ratio): A431, three day treatment, unit not printed (doses in μM), read-out: MTT assay (first value)
[4] = MDBK cells, second value of cell, read-out: MTT Assay IC50(A431/MDBK): MDBK
[5] = A-431, A431 cells, first value of cell, read-out: MTT Assay IC50(A431/MDBK): A431
[6] = follow-up MTT, MDBK cells, second value, read-out: MTT Follow-up: MDBK
[7] = A-431, follow-up MTT, A431 cells, first value, read-out: MTT Follow-up: A431

Row | Compound | ICW assay (EGFR) | IC50 (MDBK line; [2]) [µM] | IC50 [1, 3] [µM] | ICW Avg (EGFR) | ICW 1 (EGFR) | ICW 2 (EGFR) | IC50 (MDBK line; [4]) [µM] | IC50 [1, 5] [µM] | MTT Assay IC50(A431/MDBK): ratio in parentheses [1] | MTT Assay, MDBK percent at a single concentration (MDBK line; at 100 μM) [%] | IC50 (MDBK line; [6]) [µM] | IC50 [1, 7] [µM] | MTT Follow-up: ratio in parentheses [1] | IC50 (MDBK line; MDBK cells, normalized, read-out: MTT Assay IC50 (normalized): MDBK) [µM] | IC50 ([1]; A-431, A431 cells, normalized, read-out: MTT Assay IC50 (normalized): A431) [µM]
1 | CC1CCc2cc(F)ccc2N1S(=O)(=O)c1ccc(NC(=S)Nc2ccc(F)cc2)cc1 (stereo not shown) [AD4-12850] | 42.2628 | 35.8 | 31.8 |  |  |  |  |  |  |  |  |  |  |  | 
2 | O=S(=O)(Nc1ccccc1)c1ccc(NC(=S)Nc2ccc(F)c(Cl)c2)cc1 [AD4-12851] | 118.637 | 5.39 | 6.51 |  |  |  |  |  |  |  |  |  |  |  | 
3 | CC1CCc2cc(F)ccc2N1S(=O)(=O)c1ccc(NC(=S)Nc2cccc(Cl)c2Cl)cc1 (stereo not shown) [AD4-12853] | 36.92 | 7.51 | 8.76 |  |  |  |  |  |  |  |  |  |  |  | 
4 | CCc1ccc(NC(=S)Nc2ccc(S(=O)(=O)Nc3ccccc3)cc2)cc1 [AD4-12854] | 38.7055 | 8.19 | 6.64 |  |  |  |  |  |  |  |  |  |  |  | 
5 | O=S(=O)(Nc1ccccc1)c1ccc(NC(=S)Nc2cc(Cl)ccc2Cl)cc1 [AD4-12855] | 25.0542 | 6.25 | 6.83 |  |  |  |  |  |  |  |  |  |  |  | 
6 | Cc1ccc2nc(Nc3nc(=O)c(Cc4ccccc4)c(C)[nH]3)nc(C)c2c1 [compound 11294] |  |  |  | 33.47 | 29.81 | 37.13 | 19.8 | 6.43 | 3.08 |  |  |  |  |  | 
7 | Cc1ccc2[nH]c(Nc3nc(C)cc(-c4ccccc4)n3)nc(=O)c2c1 [compound 11315] |  |  |  | 49.58 | 48.33 | 50.82 |  |  | very selective | 20 |  |  |  |  | 
8 | Cc1cc(C)nc(Nc2nc(-c3ccccc3)c3cc(Cl)ccc3n2)n1 [compound 11316] |  |  |  | 50.76 | 47.95 | 53.57 | 19.9 | 44.4 | 0.45 |  |  |  |  |  | 
9 | CCOc1ccc2nc(Nc3nc(=O)c(Cc4ccc(C)cc4)c(C)[nH]3)nc(C)c2c1 [compound 11442] |  |  |  | 37.95 | 50.14 | 25.76 | 118 | 15.6 |  |  |  |  |  |  | 
10 | COc1ccc2nc(Nc3nc(CSc4nnnn4-c4ccccc4)cc(=O)[nH]3)nc(C)c2c1 [compound 11448] |  |  |  | 43.72 | 50.06 | 37.38 | 11.8 | 3.45 | 3.27 |  |  |  |  |  | 
11 | FC(F)(F)c1cc(C(F)(F)F)nc(Nc2nc(-c3ccccc3)c3cc(Cl)ccc3n2)n1 [compound 11449] |  |  |  | 37.11 | 48.00 | 26.22 | 5.4 | 6.41 | 0.84 |  |  |  |  |  | 
12 | Cc1ccc2nc(Nc3nc(CSc4nnc(C)s4)cc(=O)[nH]3)nc(C)c2c1 [compound 11450] |  |  |  | 50.68 | 53.35 | 48.02 | 6.83 | 6.98 |  |  |  |  |  |  | 
13 | Cc1ccnc(Nc2nc(-c3ccccc3)c3cc(Cl)ccc3n2)n1 [compound 11455] |  |  |  | 37.35 | 48.80 | 25.90 | 23.4 | 10.8 | 2.16 |  |  |  |  |  | 
14 | COc1ccc2nc(Nc3nc(C)c(CCC(C)C)c(=O)[nH]3)nc(C)c2c1 [compound 11456] |  |  |  | 35.54 | 33.74 | 37.33 | 5.48 | 5.84 | 0.94 |  |  |  |  |  | 
15 | Cc1cc(C(F)(F)F)nc(Nc2nc(C)c3ccccc3n2)n1 [compound 11457] |  |  |  | 28.58 | 38.67 | 18.48 | 49 | 27.4 | 1.79 |  |  |  |  |  | 
16 | CCc1ccc2nc(Nc3nc(C)c(CCC(C)C)c(=O)[nH]3)nc(C)c2c1 [compound 11462] |  |  |  | 77.32 | 77.14 | 77.49 | 46.6 | 14.6 | 3.19 |  |  |  |  |  | 
17 | Cc1ccc2c(C)nc(Nc3nc(CSc4nnc(C)s4)cc(=O)[nH]3)nc2c1 [compound 11469] |  |  |  | 25.25 | 26.79 | 23.71 | 11.5 | 10.1 | 1.13 |  |  |  |  |  | 
18 | Cc1ccc2c(C)nc(Nc3nc(C(C)C)cc(=O)[nH]3)nc2c1 [compound 11472] |  |  |  | 59.32 | 51.74 | 66.90 | 19.4 | 24.7 |  |  |  |  |  |  | 
19 | COc1cccc(-c2cc(=O)[nH]c(Nc3nc(C)c4cccc(C)c4n3)n2)c1 [compound 11474] |  |  |  | 40.45 | 32.19 | 48.71 | 28.5 | 3.57 | 7.98 |  |  |  |  |  | 
20 | Cc1cc(C)c2nc(Nc3nc(CSc4nnc(C)s4)cc(=O)[nH]3)nc(C)c2c1 [compound 11476] |  |  |  | 33.91 | 36.71 | 31.11 | 13.3 | 17.9 | 0.74 |  |  |  |  |  | 
21 | CCCCc1c(C)nc(Nc2nc(C)c3cc(C)ccc3n2)[nH]c1=O [compound 11498] |  |  |  | 49.32 | 42.15 | 56.48 | 8.77 | 5.39 |  |  |  |  |  |  | 
22 | CCc1ccc2nc(Nc3nc(-c4cccc(OC)c4)cc(=O)[nH]3)nc(C)c2c1 [compound 11503] |  |  |  | 32.21 | 25.88 | 38.53 | 19 | 6.71 | 2.83 |  |  |  |  |  | 
23 | Cc1ccc2c(C)nc(Nc3nc(-c4ccccc4C)cc(=O)[nH]3)nc2c1 [compound 11511] |  |  |  | 82.50 | 77.05 | 87.95 |  |  |  |  | 0.57 | 1.26 | 0.45 |  | 
24 | Cc1nc(Nc2nc(CSc3nc4ccccc4[nH]3)cc(=O)[nH]2)nc2ccccc12 [compound 11582] |  |  |  | 49.89 | 59.77 | 40.01 | 2.44 | 2.43 |  |  | 55.9 | 49.3 | 1.13 |  | 
25 | Cc1ccc2nc(Nc3nc(CSc4nc5ccccc5s4)cc(=O)[nH]3)nc(C)c2c1 [compound 11592] |  |  |  | 29.16 | 24.41 | 33.91 | 18.3 | 21.8 | 0.84 |  |  |  |  |  | 
26 | Cc1ccc2nc(Nc3nc(=O)cc(-c4ccccc4)[nH]3)nc(C)c2c1 [compound 11601] |  |  |  | 56.08 | 58.11 | 54.06 | 2.62 | 1.29 |  |  | 48.6 | 3.67 | 13.23 | 2.61 | 0.738
